Results published in patent US9403823B2, “Protein kinase inhibitors” (ORIBASE PHARMA, priority 2012, dated 2016).
Read-outs that look alike come from different tables or passages of the source.

Key:
HUVEC = assay: In vitro cell proliferation assay (MTT), HUVEC; assay type: cell-based; settings: Homo sapiens, read-out: EC50, anti-proliferative activity
Procedure: (§1) 2) In Vitro Cell Proliferation Assays (Table 22 to Table 35)
(§2) Cancer cell lines (5×10^3 cells per well) or HUVEC (1×10^4 cells per well) or HRMEC (1×10^4 cells per well) were distributed in 96-well plates and incubating in duplicate with escalating concentrations (10 nM to 3 μM) of compounds for 72 hr. Cell proliferation was measured using MTT (3[4,5-dimethylthiazol-2-yl]-2,5-diphenyltetrazolium bromide).

KDR (VEGFR2) = target: T1, KDR (VEGFR2) (Homo sapiens, UniProt P35968); assay: In vitro kinase assay (Z'-LYTE), KDR (VEGFR2); assay type: biochemical; settings: read-out: % of inhibition of the kinase compared to the control
T1 construct: purchased Invitrogen
Procedure: (§3) 1) In Vitro Kinase Assays (Table 10 to Table 21)
(§4) The inhibitory activity of the compounds on several kinases including BRAF, EGFR (ErbB1), EGFR (ErbB1) T790M L858R, FGFR2, KDR (VEGFR2), PDGFRA (PDGFR alpha), SRC and other was evaluated by Invitrogen using the Z′-LYTE® technology. Briefly, the Z′-LYTE® biochemical assay employs a fluorescence-based, coupled-enzyme format and is based on the differential sensitivity of phosphorylated and non-phosphorylated peptides to proteolytic cleavage. The peptide substrate is labeled with two fluorophores—one at each end—that make up a FRET pair. A ratiometric method, which calculates the ratio (the Emission Ratio) of donor emission to acceptor emission after excitation of the donor fluorophore at 400 nm, is used to quantitate reaction progress.
(§5) The compounds are screened in 1% DMSO (final) in the well. For 10 point titrations, 3-fold serial dilutions are conducted from the starting concentration. All Peptide/Kinase Mixtures are diluted to a 2× working concentration in the appropriate Kinase Buffer. All ATP Solutions are diluted to a 4× working concentration in Kinase Buffer (50 mM HEPES pH 7.5, 0.01% BRIJ-35, 10 mM MgCl2, 1 mM EGTA). ATP Km apparent is previously determined using a Z′-LYTE® assay.
(§6) Each compound was incubated at a concentration of 100 nM (excepted to test the activity against ABL and ABL T315I for which the compounds were incubated at a concentration of 10 μM) and the tables 10 to 21 summarize the results obtained showing the inhibitory power of a compound.

BRAF = target: T2, BRAF (Homo sapiens, UniProt P15056); assay: In vitro kinase assay (Z'-LYTE), BRAF; assay type: biochemical; settings: read-out: % of inhibition of the kinase compared to the control
T2 construct: purchased Invitrogen
Procedure: as §3, §4, §5, §6

PDGFRA (PDGFR alpha) = target: T3, PDGFRA (PDGFR alpha) (Homo sapiens, UniProt P16234); assay: In vitro kinase assay (Z'-LYTE), PDGFRA; assay type: biochemical; settings: read-out: % of inhibition of the kinase compared to the control
T3 construct: purchased Invitrogen
Procedure: as §3, §4, §5, §6

HepG2 cell line = assay: In vitro cell proliferation assay (MTT), HepG2; assay type: cell-based; settings: Homo sapiens, read-out: EC50, anti-proliferative activity
Procedure: as §1, §2

EGFR (ErbB1) = target: T4, EGFR (ErbB1) (Homo sapiens, UniProt P00533); assay: In vitro kinase assay (Z'-LYTE), EGFR (ErbB1); assay type: biochemical; settings: read-out: % of inhibition of the kinase compared to the control
T4 construct: purchased Invitrogen
Procedure: as §3, §4, §5, §6

SRC = target: T5, SRC (Homo sapiens, UniProt P12931); assay: In vitro kinase assay (Z'-LYTE), SRC; assay type: biochemical; settings: read-out: % of inhibition of the kinase compared to the control
T5 construct: purchased Invitrogen
Procedure: as §3, §4, §5, §6

FGFR2 = target: T6, FGFR2 (Homo sapiens, UniProt P21802); assay: In vitro kinase assay (Z'-LYTE), FGFR2; assay type: biochemical; settings: read-out: % of inhibition of the kinase compared to the control
T6 construct: purchased Invitrogen
Procedure: as §3, §4, §5, §6

T3 sequence (P16234 24-1089): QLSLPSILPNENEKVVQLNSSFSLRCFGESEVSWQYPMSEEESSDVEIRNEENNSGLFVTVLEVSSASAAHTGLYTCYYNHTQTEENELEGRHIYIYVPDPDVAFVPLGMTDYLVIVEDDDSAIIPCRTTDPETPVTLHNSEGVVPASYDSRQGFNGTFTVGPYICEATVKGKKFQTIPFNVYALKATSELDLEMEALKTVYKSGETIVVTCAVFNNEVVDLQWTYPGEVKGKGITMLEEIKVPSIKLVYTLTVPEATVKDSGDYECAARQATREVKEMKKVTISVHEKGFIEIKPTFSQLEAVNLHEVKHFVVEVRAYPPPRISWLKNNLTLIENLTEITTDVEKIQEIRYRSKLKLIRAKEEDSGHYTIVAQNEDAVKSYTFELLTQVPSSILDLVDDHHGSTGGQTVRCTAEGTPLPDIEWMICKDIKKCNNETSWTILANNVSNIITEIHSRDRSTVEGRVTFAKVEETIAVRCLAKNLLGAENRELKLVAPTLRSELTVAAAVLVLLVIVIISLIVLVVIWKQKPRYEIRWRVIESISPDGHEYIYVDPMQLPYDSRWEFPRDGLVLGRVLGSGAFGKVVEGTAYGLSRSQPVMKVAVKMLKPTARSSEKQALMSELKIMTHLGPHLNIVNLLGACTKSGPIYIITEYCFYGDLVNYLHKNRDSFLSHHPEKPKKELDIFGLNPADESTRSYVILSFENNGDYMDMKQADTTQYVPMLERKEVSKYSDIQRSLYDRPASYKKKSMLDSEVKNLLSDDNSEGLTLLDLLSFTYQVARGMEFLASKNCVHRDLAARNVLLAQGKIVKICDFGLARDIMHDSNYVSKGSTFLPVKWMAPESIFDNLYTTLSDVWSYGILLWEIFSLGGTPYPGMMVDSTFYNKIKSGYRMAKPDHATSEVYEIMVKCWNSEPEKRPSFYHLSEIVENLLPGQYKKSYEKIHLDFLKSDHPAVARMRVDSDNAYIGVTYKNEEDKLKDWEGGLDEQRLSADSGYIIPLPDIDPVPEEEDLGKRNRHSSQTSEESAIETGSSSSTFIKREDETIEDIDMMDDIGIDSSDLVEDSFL
T6 sequence (P21802 22-821): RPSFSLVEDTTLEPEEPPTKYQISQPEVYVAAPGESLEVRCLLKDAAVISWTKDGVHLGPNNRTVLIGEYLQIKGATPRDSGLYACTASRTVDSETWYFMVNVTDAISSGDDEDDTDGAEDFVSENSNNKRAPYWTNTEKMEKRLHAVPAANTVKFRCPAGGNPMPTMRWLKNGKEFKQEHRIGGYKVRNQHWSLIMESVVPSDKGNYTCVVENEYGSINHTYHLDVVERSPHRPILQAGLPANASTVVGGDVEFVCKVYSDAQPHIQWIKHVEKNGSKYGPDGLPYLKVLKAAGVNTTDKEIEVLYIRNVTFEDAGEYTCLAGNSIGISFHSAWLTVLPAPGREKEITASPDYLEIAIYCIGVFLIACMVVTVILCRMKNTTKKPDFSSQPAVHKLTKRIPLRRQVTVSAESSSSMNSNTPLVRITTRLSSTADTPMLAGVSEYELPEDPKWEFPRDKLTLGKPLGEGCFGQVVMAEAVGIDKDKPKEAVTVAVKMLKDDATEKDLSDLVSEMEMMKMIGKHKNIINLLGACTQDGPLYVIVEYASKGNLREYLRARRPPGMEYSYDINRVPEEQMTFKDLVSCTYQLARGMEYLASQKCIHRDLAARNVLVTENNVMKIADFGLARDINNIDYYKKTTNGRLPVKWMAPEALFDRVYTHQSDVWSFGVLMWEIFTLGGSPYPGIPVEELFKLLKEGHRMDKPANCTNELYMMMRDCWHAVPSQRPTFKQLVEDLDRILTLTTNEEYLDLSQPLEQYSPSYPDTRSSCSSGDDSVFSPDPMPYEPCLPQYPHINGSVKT
T1 sequence (P35968 20-1356): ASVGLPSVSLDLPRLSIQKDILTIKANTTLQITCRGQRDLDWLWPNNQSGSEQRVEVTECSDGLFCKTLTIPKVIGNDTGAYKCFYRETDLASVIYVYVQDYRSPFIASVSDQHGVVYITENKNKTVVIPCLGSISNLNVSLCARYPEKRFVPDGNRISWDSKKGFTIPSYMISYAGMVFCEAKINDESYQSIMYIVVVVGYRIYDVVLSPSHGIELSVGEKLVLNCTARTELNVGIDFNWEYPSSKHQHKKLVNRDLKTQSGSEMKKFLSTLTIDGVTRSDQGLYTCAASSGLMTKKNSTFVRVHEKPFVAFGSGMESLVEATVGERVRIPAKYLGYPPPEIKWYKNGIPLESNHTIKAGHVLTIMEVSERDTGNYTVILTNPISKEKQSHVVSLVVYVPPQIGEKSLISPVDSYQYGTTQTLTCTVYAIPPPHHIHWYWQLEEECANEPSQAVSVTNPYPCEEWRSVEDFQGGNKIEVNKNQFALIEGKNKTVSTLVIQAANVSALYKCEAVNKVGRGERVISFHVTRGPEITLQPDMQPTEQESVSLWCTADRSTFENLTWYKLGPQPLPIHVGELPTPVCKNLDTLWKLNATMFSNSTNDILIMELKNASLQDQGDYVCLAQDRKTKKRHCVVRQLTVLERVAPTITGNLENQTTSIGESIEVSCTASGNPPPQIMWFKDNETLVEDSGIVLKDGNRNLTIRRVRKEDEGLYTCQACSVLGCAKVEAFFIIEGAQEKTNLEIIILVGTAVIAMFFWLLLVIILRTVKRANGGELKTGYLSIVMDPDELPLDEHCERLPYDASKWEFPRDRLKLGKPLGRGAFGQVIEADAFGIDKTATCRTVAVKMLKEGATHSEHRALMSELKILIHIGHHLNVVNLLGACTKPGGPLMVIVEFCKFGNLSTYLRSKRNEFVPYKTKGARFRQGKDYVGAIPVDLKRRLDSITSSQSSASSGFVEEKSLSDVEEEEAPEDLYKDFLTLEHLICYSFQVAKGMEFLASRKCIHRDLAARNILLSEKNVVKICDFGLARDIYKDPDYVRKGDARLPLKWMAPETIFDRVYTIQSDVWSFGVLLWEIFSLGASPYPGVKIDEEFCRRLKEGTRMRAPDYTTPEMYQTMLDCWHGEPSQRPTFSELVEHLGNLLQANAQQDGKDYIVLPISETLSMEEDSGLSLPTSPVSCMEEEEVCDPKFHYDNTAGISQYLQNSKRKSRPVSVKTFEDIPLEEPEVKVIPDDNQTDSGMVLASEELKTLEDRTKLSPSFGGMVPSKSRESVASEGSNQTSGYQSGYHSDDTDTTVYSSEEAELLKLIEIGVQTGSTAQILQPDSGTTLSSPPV
T5 sequence (P12931 whole entry): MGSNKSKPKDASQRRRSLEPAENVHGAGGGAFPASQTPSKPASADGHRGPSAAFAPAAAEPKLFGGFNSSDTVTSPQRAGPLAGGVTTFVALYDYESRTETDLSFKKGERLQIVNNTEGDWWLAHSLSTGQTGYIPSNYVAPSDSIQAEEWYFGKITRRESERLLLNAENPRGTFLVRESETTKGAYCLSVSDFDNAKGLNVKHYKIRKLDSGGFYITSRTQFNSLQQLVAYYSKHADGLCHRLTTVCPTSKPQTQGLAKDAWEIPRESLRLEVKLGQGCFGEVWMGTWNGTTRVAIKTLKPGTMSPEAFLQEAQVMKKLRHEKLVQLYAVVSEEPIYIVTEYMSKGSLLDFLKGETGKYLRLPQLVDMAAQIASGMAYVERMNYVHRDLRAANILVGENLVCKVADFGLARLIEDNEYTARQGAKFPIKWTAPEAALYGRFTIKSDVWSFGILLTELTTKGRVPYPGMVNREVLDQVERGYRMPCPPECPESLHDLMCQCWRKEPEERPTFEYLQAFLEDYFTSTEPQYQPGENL
T2 sequence (P15056 whole entry): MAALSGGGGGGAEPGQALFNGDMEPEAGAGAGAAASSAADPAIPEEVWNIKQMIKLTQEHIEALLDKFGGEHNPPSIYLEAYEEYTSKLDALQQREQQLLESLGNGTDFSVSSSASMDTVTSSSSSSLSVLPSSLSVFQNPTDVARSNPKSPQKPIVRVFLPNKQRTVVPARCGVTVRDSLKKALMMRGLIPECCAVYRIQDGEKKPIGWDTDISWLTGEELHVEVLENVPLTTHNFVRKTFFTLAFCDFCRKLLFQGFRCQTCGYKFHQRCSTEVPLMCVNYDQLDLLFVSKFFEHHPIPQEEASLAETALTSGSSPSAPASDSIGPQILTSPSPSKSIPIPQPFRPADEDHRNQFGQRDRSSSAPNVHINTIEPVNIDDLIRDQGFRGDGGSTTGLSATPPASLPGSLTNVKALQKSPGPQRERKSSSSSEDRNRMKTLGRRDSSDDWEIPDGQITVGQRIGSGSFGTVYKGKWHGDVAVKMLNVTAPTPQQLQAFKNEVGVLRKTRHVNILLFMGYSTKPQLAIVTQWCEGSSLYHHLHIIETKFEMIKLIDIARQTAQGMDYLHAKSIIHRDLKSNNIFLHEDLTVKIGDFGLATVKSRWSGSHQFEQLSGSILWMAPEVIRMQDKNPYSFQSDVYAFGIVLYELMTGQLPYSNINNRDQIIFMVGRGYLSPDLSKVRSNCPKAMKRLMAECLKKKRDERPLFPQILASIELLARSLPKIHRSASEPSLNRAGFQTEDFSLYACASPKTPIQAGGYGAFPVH

| SMILES | inhibition at 0.1 µM (KDR (VEGFR2)) [%] | inhibition at 0.1 µM (BRAF) [%] | inhibition at 0.1 µM (PDGFRA (PDGFR alpha)) [%] | EC50 (HepG2 cell line; HepG2, 72 hr, MTT) [nM] | inhibition at 0.1 µM (EGFR (ErbB1)) [%] | inhibition at 0.1 µM (SRC) [%] | inhibition at 0.1 µM (FGFR2) [%] | EC50 (HepG2 cell line; HepG2, 72 h) [nM] | EC50 (HUVEC; 72 h) [nM] | EC50 (HUVEC; 72 hr, MTT) [nM] |
| --- | --- | --- | --- | --- | --- | --- | --- | --- | --- | --- |
| CC(=O)c1cc2cc(NCc3cc(NC(=O)c4ccnc(C)c4)ccc3C)cnc2[nH]1 [OR0889, N-{3-[(2-Acetyl-1H-pyrrolo[2,3-b]pyridin-5-ylamino)-methyl]-4-methyl-phenyl}-2-methyl-isonicotinamide] | < 50 | ≥ 50 | ≥ 50 | ≥ 1000 | < 50 | < 50 | < 50 |  | 100 to 1000 |  |
| CC(=O)c1cc2cc(NCc3cc(NC(=O)c4ccc5[nH]ccc5c4)ccc3C)cnc2[nH]1 [OR0980, 1H-Indole-5-carboxylic acid {3-[(2-acetyl-1H-pyrrolo[2,3-b]pyridin-5-ylamino)-methyl]-4-methyl-phenyl}-amide] | < 50 | ≥ 50 | ≥ 50 |  | < 50 | < 50 | < 50 | 100 to 1000 |  | ≥ 1000 |
| CC(=O)c1cc2cc(NCc3cc(NC(=O)c4ccncn4)ccc3C)cnc2[nH]1 [OR0988, Pyrimidine-4-carboxylic acid {3-[(2-acetyl-1H-pyrrolo[2,3-b]pyridin-5-ylamino)-methyl]-4-methyl-phenyl}-amide] | < 50 | < 50 | < 50 | ≥ 1000 | < 50 | < 50 | < 50 |  |  | ≥ 1000 |
| CC(=O)c1cc2cc(NCc3cc(NC(=O)c4cncc(C(F)(F)F)c4)ccc3F)cnc2[nH]1 [OR0970, N-{5-[(2-Acetyl-1H-pyrrolo[2,3-b]pyridin-5-ylamino)-methyl]-4-fluoro-phenyl}-5-trifluoromethyl-nicotinamide] | ≥ 50 | ≥ 50 |  |  | < 50 |  | < 50 | 100 to 1000 |  | ≥ 1000 |
| CC(=O)c1cc2cc(NCc3cc(NC(=O)c4cc[nH]c4)ccc3C)cnc2[nH]1 [OR0986, 1H-Pyrrole-3-carboxylic acid {3-[(2-acetyl-1H-pyrrolo[2,3-b]pyridin-5-ylamino)-methyl]-4-methyl-phenyl}-amide] | < 50 | ≥ 50 | ≥ 50 | ≥ 1000 | < 50 | < 50 | < 50 |  |  | ≥ 1000 |
| CC(=O)c1cc2cc(NCc3cc(NC(=O)c4cncc(C)c4)ccc3C)cnc2[nH]1 [OR0888, N-{3-[(2-Acetyl-1H-pyrrolo[2,3-b]pyridin-5-ylamino)-methyl]-4-methyl-phenyl}-5-methyl-nicotinamide] | ≥ 50 | ≥ 50 | ≥ 50 | ≥ 1000 | < 50 | ≥ 50 | < 50 |  | 100 to 1000 |  |
| CC(=O)c1cc2cc(NCc3cc(NC(=O)C4CC4)ccc3C)cnc2[nH]1 [OR0929, Cyclopropanecarboxylic acid {3-[(2-acetyl-1H-pyrrolo[2,3-b]pyridin-5-ylamino)-methyl]-4-methyl-phenyl}-amide] | < 50 | < 50 | < 50 | ≥ 1000 | < 50 | < 50 | < 50 |  |  | ≥ 1000 |
| CC(=O)c1cc2cc(NCc3cc(NC(=O)Nc4cccnc4)ccc3C)cnc2[nH]1 [OR0897, 1-{3-[(2-Acetyl-1H-pyrrolo[2,3-b]pyridin-5-ylamino)-methyl]-4-methyl-phenyl}-3-pyridin-3-yl-urea] | < 50 | ≥ 50 | ≥ 50 |  | < 50 | < 50 | < 50 | ≤ 100 |  | ≥ 1000 |

Second part, led by results:

| inhibition at 0.1 µM (KDR (VEGFR2)) [%] | inhibition at 0.1 µM (BRAF) [%] | inhibition at 0.1 µM (PDGFRA (PDGFR alpha)) [%] | EC50 (HepG2 cell line; HepG2, 72 hr, MTT) [nM] | inhibition at 0.1 µM (EGFR (ErbB1)) [%] | inhibition at 0.1 µM (SRC) [%] | inhibition at 0.1 µM (FGFR2) [%] | EC50 (HepG2 cell line; HepG2, 72 h) [nM] | SMILES | EC50 (HUVEC; 72 h) [nM] | EC50 (HUVEC; 72 hr, MTT) [nM] |
| --- | --- | --- | --- | --- | --- | --- | --- | --- | --- | --- |
| < 50 | < 50 | < 50 |  | < 50 | < 50 | < 50 | 100 to 1000 | CC(=O)c1cc2cc(NCc3cc(NC(=O)c4ccc(Cl)c(C(F)(F)F)c4)ccc3C)cnc2[nH]1 [OR0891, N-{3-[(2-Acetyl-1H-pyrrolo[2,3-b]pyridin-5-ylamino)-methyl]-4-methyl-phenyl}-4-chloro-3-trifluoromethyl-benzamide] | 100 to 1000 |  |
| < 50 | < 50 | < 50 | ≥ 1000 | < 50 | < 50 | < 50 |  | CC(=O)c1cc2cc(NC(=O)c3cccc(CNC(=O)c4ccc(CN5CCN(C)CC5)c(C(F)(F)F)c4)c3)cnc2[nH]1 [OR0984, N-[3-(2-Acetyl-1H-pyrrolo[2,3-b]pyridin-5-ylcarbamoyl)-benzyl]-4-(4-methyl-piperazin-1-ylmethyl)-3-trifluoromethyl-benzamide] |  |  |
| < 50 | < 50 | < 50 |  | < 50 | < 50 | < 50 | ≤ 100 | CC(=O)c1cc2cc(NC(=O)c3cc(NC(=O)Nc4cccc(C(F)(F)F)c4)ccc3C)cnc2[nH]1 [OR0951, N-(2-Acetyl-1H-pyrrolo[2,3-b]pyridin-5-yl)-2-methyl-5-[3-(3-trifluoromethyl-phenyl)-ureido]-benzamide] |  | ≥ 1000 |
| < 50 | ≥ 50 | ≥ 50 |  | < 50 | < 50 | < 50 | 100 to 1000 | CC(=O)c1cc2cc(NCc3cc(NC(=O)Cc4cccc(C(F)(F)F)c4)ccc3C)cnc2[nH]1 [OR0968, N-{3-[(2-Acetyl-1H-pyrrolo[2,3-b]pyridin-5-ylamino)-methyl]-4-methyl-phenyl}-2-(3-trifluoromethyl-phenyl)-acetamide] |  | ≥ 1000 |
| < 50 | < 50 | ≥ 50 |  | < 50 | < 50 | < 50 | 100 to 1000 | CC(=O)c1cc2cc(NCc3cc(NC(=O)Nc4cccc(C(F)(F)F)c4)ccc3C)cnc2[nH]1 [OR0895, 1-{3-[(2-Acetyl-1H-pyrrolo[2,3-b]pyridin-5-ylamino)-methyl]-4-methyl-phenyl}-3-(3-trifluoromethyl-phenyl)-urea] |  | ≥ 1000 |
| ≥ 50 | ≥ 50 | ≥ 50 |  | < 50 | < 50 | < 50 | 100 to 1000 | CC(=O)c1cc2cc(NCc3cccc(NC(=O)c4cncc(C(F)(F)F)c4)c3)cnc2[nH]1 [OR0950, N-{3-[(2-Acetyl-1H-pyrrolo[2,3-b]pyridin-5-ylamino)-methyl]-phenyl}-5-trifluoromethyl-nicotinamide] |  | ≥ 1000 |
| < 50 | < 50 | ≥ 50 | ≥ 1000 |  | < 50 | < 50 |  | CC(=O)c1cc2cc(NCc3cc(NC(=O)c4ccc(C(F)(F)F)nc4)ccc3C)cnc2[nH]1 [OR0886, N-{3-[(2-Acetyl-1H-pyrrolo[2,3-b]pyridin-5-ylamino)-methyl]-4-methyl-phenyl}-6-trifluoromethyl-nicotinamide] | 100 to 1000 |  |
| ≥ 50 | < 50 |  | ≥ 1000 | ≥ 50 |  | ≥ 50 |  | CC(=O)c1cc2cc(NCc3cccc(C(=O)Nc4cccnc4)c3)cnc2[nH]1 [OR0917, 3-[(2-Acetyl-1H-pyrrolo[2,3-b]pyridin-5-ylamino)-methyl]-N-pyridin-3-yl-benzamide] |  | ≥ 1000 |
